Measured values from patent publication US20060069132A1, “Azolecarboxamide herbicides” (priority 2004, published 2006).
Where two headings read alike, the source gives them in different places.

Legend:
[1] = system: barnyardgrass; assay: Test B pre-/postemergence herbicide test; format: in vivo, Echinochloa crus-galli; settings: Echinochloa crus-galli; for pest or weed control at 125 g/ha: 125 g ai/ha
Summary of the method: (§1)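 Test chemicals in a non-phytotoxic solvent mixture with surfactant were applied preemergence to seeded species and postemergence to plants 2-18 cm tall (1- to 4-leaf stage); rice and barnyardgrass were also tested in a flooded paddy at the 2-leaf stage. Visual rating versus controls after 13-15 days in greenhouse, scale 0 (no effect) to 100 (complete control).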

[2] = system: Surinam grass; assay: Test B pre-/postemergence herbicide test; format: in vivo, Urochloa decumbens; settings: Urochloa decumbens; for pest or weed control at 125 g/ha: 125 g ai/ha
Summary of the method: (§2)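 Response was scored visually 13 to 15 days after treatment against untreated greenhouse controls, 0 meaning no effect and 100 complete control. Formulations (solvent mixture plus surfactant) went onto soil after planting, onto foliage of 1- to 4-leaf plants, and onto 2-leaf plants in a flooded paddy set including rice and barnyardgrass.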

[3] = system: cocklebur; assay: Test B pre-/postemergence herbicide test; format: in vivo, Xanthium strumarium; settings: Xanthium strumarium; for pest or weed control at 125 g/ha: 125 g ai/ha
Summary of the method: as §1

[4] = system: corn; assay: Test B pre-/postemergence herbicide test; format: in vivo, Zea mays; settings: Zea mays; for plant injury at 125 g/ha: 125 g ai/ha
Summary of the method: as §2

[5] = system: large crabgrass; assay: Test B pre-/postemergence herbicide test; format: in vivo, Digitaria sanguinalis; settings: Digitaria sanguinalis; for pest or weed control at 125 g/ha: 125 g ai/ha
Summary of the method: as §2

[6] = system: giant foxtail; assay: Test B pre-/postemergence herbicide test; format: in vivo, Setaria faberi; settings: Setaria faberi, 336 h; for pest or weed control at 125 g/ha: 125 g ai/ha
Summary of the method: as §2

[7] = system: lambsquarters; assay: Test B pre-/postemergence herbicide test; format: in vivo, Chenopodium album; settings: Chenopodium album, 336 h; for pest or weed control at 125 g/ha: 125 g ai/ha
Summary of the method: as §2

[8] = system: morningglory; assay: Test B pre-/postemergence herbicide test; format: in vivo, Ipomoea coccinea; settings: Ipomoea, 336 h; for pest or weed control at 125 g/ha: 125 g ai/ha
Summary of the method: as §1

[9] = system: pigweed; assay: Test B pre-/postemergence herbicide test; format: in vivo, Amaranthus retroflexus; settings: Amaranthus retroflexus, 336 h; for pest or weed control at 125 g/ha: 125 g ai/ha
Summary of the method: as §2

[10] = system: blackgrass; assay: Test B postemergence herbicide test; format: in vivo, Alopecurus myosuroides; settings: Alopecurus myosuroides, post-emergence, 336 h, postemergence, read-out: Blackgrass plant response rating
Summary of the method: (§3)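 Paddy species grown to the 2-leaf stage under flooding; blackgrass sprayed postemergence at 2–18 cm (1- to 4-leaf stage). Plants kept in a greenhouse for 13 to 15 days, then visually rated against controls on 0 (no effect) to 100 (complete control).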

[11] = system: wheat; assay: Test B postemergence herbicide test; format: in vivo, Triticum aestivum; settings: Triticum aestivum, post-emergence, 336 h, postemergence, read-out: Wheat plant response rating
Summary of the method: (§4)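 Greenhouse test; postemergence application to plants at 1–4 leaves (2–18 cm); paddy species at 2 leaves; evaluated visually vs controls at 13–15 days; scale 0–100 (100 = complete control).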

[12] = system: wild oat; assay: Test B postemergence herbicide test; format: in vivo, Avena fatua; settings: Avena fatua, post-emergence, 336 h, postemergence, read-out: Oat, Wild plant response rating
Summary of the method: as §4

[13] = system: rice; assay: Test B flooded paddy test; format: in vivo, Oryza sativa; settings: Oryza sativa, 336 h, 1000 g ai/ha, visual rating, scale 0 to 100 (0 no effect, 100 complete control), 13 to 15 days, read-out: Rice plant response rating
Summary of the method: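 Postemergence plants were sprayed with formulated test chemicals at 2 to 18 cm height (1- to 4-leaf stage); paddy species were grown to the 2-leaf stage. After 13 to 15 days in a greenhouse, injury was rated visually against untreated controls on a 0–100 scale (0 = no effect, 100 = complete control).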

[14] = system: small flower umbrella sedge; assay: Test B flooded paddy test; format: in vivo, Cyperus difformis; settings: Cyperus difformis, 336 h, 1000 g ai/ha, visual rating, scale 0 to 100 (0 no effect, 100 complete control), 13 to 15 days, read-out: Sedge, Umbrella plant response rating
Summary of the method: as §3

[15] = system: ducksalad; assay: Test B flooded paddy test; format: in vivo, Heteranthera limosa; settings: Heteranthera limosa, 336 h, 1000 g ai/ha, visual rating, scale 0 to 100 (0 no effect, 100 complete control), 13 to 15 days, read-out: Ducksalad plant response rating
Summary of the method: as §3

[16] = system: barnyardgrass; assay: Test B flooded paddy test; format: in vivo, Echinochloa crus-galli; settings: Echinochloa crus-galli, 336 h, 1000 g ai/ha, visual rating, scale 0 to 100 (0 no effect, 100 complete control), 13 to 15 days, read-out: Barnyardgrass plant response rating
Summary of the method: as §3

[17] = 125 g ai/ha, visual rating, scale 0 (no effect) to 100 (complete control)

## CCc1cn(C(C)(C)C)nc1C(=O)Nc1cccc(C(=O)N(CC)CC)c1 [Compound 168, N-[3-[(diethylamino)carbonyl]phenyl]-1-(1,1-dimethylethyl)-4-ethyl-1H-pyrazole-3-carboxamide]
[1]; post-emergence, postemergence, 31 g ai/ha, scale 0 to 100, read-out: Barnyardgrass plant response rating
  pest or weed control at 31 g/ha: 0%
[1]; post-emergence, postemergence, visual rating, scale 0 (no effect) to 100 (complete control), read-out: Barnyardgrass plant response rating
  pest or weed control at 125 g/ha: 50%
[1]; pre-emergence, 0 = no effect, 100 = complete control, read-out: Barnyardgrass plant response rating (0 to 100 scale)
  pest or weed control at 125 g/ha: 70%
[2]; post-emergence, postemergence, 31 g ai/ha, scale 0 to 100, read-out: Surinam Grass plant response rating
  pest or weed control at 31 g/ha: 10%
[2]; post-emergence, postemergence, visual rating, scale 0 (no effect) to 100 (complete control), read-out: Surinam Grass plant response rating
  pest or weed control at 125 g/ha: 20%
[2]; pre-emergence, 0 = no effect, 100 = complete control, read-out: Surinam Grass plant response rating (0 to 100 scale)
  pest or weed control at 125 g/ha: 50%
[3]; post-emergence, postemergence, 31 g ai/ha, scale 0 to 100, read-out: Cocklebur plant response rating
  pest or weed control at 31 g/ha: 30%
[3]; post-emergence, postemergence, visual rating, scale 0 (no effect) to 100 (complete control), read-out: Cocklebur plant response rating
  pest or weed control at 125 g/ha: 70%
[3]; pre-emergence, 0 = no effect, 100 = complete control, read-out: Cocklebur plant response rating (0 to 100 scale)
  pest or weed control at 125 g/ha: 0%
[4]; post-emergence, postemergence, 31 g ai/ha, scale 0 to 100, read-out: Corn plant response rating
  plant injury at 31 g/ha: 10%
[4]; post-emergence, postemergence, visual rating, scale 0 (no effect) to 100 (complete control), read-out: Corn plant response rating
  plant injury at 125 g/ha: 50%
[4]; pre-emergence, 0 = no effect, 100 = complete control, read-out: Corn plant response rating (0 to 100 scale)
  plant injury at 125 g/ha: 0%
[5]; post-emergence, postemergence, 31 g ai/ha, scale 0 to 100, read-out: Crabgrass, Large plant response rating
  pest or weed control at 31 g/ha: 10%
[5]; post-emergence, postemergence, visual rating, scale 0 (no effect) to 100 (complete control), read-out: Crabgrass, Large plant response rating
  pest or weed control at 125 g/ha: 20%
[5]; pre-emergence, 0 = no effect, 100 = complete control, read-out: Crabgrass, Large plant response rating (0 to 100 scale)
  pest or weed control at 125 g/ha: 100%
[6]; post-emergence, postemergence, 31 g ai/ha, scale 0 to 100, read-out: Foxtail, Giant plant response rating
  pest or weed control at 31 g/ha: 0%
[6]; post-emergence, postemergence, visual rating, scale 0 (no effect) to 100 (complete control), read-out: Foxtail, Giant plant response rating
  pest or weed control at 125 g/ha: 20%
[6]; pre-emergence, 0 = no effect, 100 = complete control, read-out: Foxtail, Giant plant response rating (0 to 100 scale)
  pest or weed control at 125 g/ha: 90%
[7]; post-emergence, postemergence, 31 g ai/ha, scale 0 to 100, read-out: Lambsquarters plant response rating
  pest or weed control at 31 g/ha: 50%
[7]; post-emergence, postemergence, visual rating, scale 0 (no effect) to 100 (complete control), read-out: Lambsquarters plant response rating
  pest or weed control at 125 g/ha: 70%
[7]; pre-emergence, 0 = no effect, 100 = complete control, read-out: Lambsquarters plant response rating (0 to 100 scale)
  pest or weed control at 125 g/ha: 90%
[8]; post-emergence, postemergence, 31 g ai/ha, scale 0 to 100, read-out: Morningglory plant response rating
  pest or weed control at 31 g/ha: 20%
[8]; post-emergence, postemergence, visual rating, scale 0 (no effect) to 100 (complete control), read-out: Morningglory plant response rating
  pest or weed control at 125 g/ha: 70%
[8]; pre-emergence, 0 = no effect, 100 = complete control, read-out: Morningglory plant response rating (0 to 100 scale)
  pest or weed control at 125 g/ha: 0%
[9]; post-emergence, postemergence, 31 g ai/ha, scale 0 to 100, read-out: Pigweed plant response rating
  pest or weed control at 31 g/ha: 50%
[9]; post-emergence, postemergence, visual rating, scale 0 (no effect) to 100 (complete control), read-out: Pigweed plant response rating
  pest or weed control at 125 g/ha: 70%
[9]; pre-emergence, 0 = no effect, 100 = complete control, read-out: Pigweed plant response rating (0 to 100 scale)
  pest or weed control at 125 g/ha: 100%
[10]; 31 g ai/ha, scale 0 to 100
  pest or weed control at 31 g/ha: 0%
[10]; [17]
  pest or weed control at 125 g/ha: 10%
[11]; 31 g ai/ha, scale 0 to 100
  plant injury at 31 g/ha: 0%
[11]; [17]
  plant injury at 125 g/ha: 20%
[12]; 31 g ai/ha, scale 0 to 100
  pest or weed control at 31 g/ha: 10%
[12]; [17]
  pest or weed control at 125 g/ha: 20%
[13]
  plant injury at 1000 g/ha: 40%
[14]
  pest or weed control at 1000 g/ha: 90%
[15]
  pest or weed control at 1000 g/ha: 70%
[16]
  pest or weed control at 1000 g/ha: 50%
